Test results published in patent US20240327434A1, “FUSED TETRACYCLIC COMPOUND, PREPARATION METHOD THEREFOR AND APPLICATION THEREOF IN MEDICINE” (Jiangsu Hengrui Pharmaceuticals Co., Ltd., priority 2021, published 2024).

Tests used:
[1] = molecular target: KRAS protein subtype G12D (Avi-KRAS-G12D) (Homo sapiens (Human), UniProt P01116, G12D); assay: SPR affinity for KRAS protein subtype G12D (Biacore 8K); format: binding; conditions: single-cycle kinetic mode, 1:1 model, read-out: G12D KD (unit mol/L)
Description: (§1) Biotinylated Avi-KRAS-WT or Avi-KRAS-G12D was diluted to 20 μg/mL with 1x HBS-P+(Cat. #BR1006-71) buffer containing 100 mM MgCl2, and then flowed through SA (Cat. #BR1005-31) biosensing chip channel 2 for 420 s to obtain a coupling level of approximately 5000-7000 RU. Then samples of small molecular compounds were injected for 120 s in an ascending order, and then were dissociated for 720 s. The experiment employed a single-cycle kinetic mode. Reaction signals were detected in real time using a Biacore 8K instrument to obtain association and dissociation curves. After the experiment ended, data analysis was performed using Biacore 8K evaluation software, and affinity data were obtained by performing data fitting using a 1:1 model.

[2] = molecular target: KRAS protein subtype WT (Avi-KRAS-WT) (Homo sapiens (Human), UniProt P01116); assay: SPR affinity for KRAS protein subtype WT (Biacore 8K); format: binding; conditions: single-cycle kinetic mode, 1:1 model, read-out: WT KD (unit mol/L)
Description: as §1

[3] = test system: ERK phosphorylation of AGS cells; assay: Inhibition of ERK phosphorylation of AGS cells (HTRF method); format: cell-based; conditions: Homo sapiens, 1 h compound incubation, phosphorylated ERK/total ERK ratio, read-out: AGS/ IC50 (nM), inhibitory activity for ERK phosphorylation
Description: In the experiment, the inhibition effect of the compounds on ERK phosphorylation of the cells was detected, and the inhibition effect of the compounds disclosed herein on the KRAS target was evaluated according to the IC50.
AGS cells (Nanjing Cobioer, CBP60476) were cultured in RPMI1640 (Hyclone, SH30809.01) complete medium containing 10% fetal bovine serum. On the first day of the experiment, the AGS cells were seeded into a 96-well plate with complete medium at a density of 40,000 cells/well to form 190 μL of cell suspension per well. The plate was incubated overnight in a cell incubator at 37° C. with 5% CO2.
The next day, 10 μL of serially-diluted test compound prepared from the complete medium was added to each well. The final concentrations of the compound were 9 concentration points obtained by 5-fold serial dilution from 10 μM. A blank control containing 0.5% DMSO was set. The well plate was incubated in a cell incubator at 37° C. with 5% CO2 for 1 h. After completion of incubation, the 96-well cell culture plate was taken out, the medium was removed by pipetting, 200 μL PBS (Shanghai BasalMedia Technologies Co., Ltd., B320) was added to each well, and the cells were washed once. PBS was removed by pipetting, 50 μL of lysis buffer (Cisbio, 64KL1FDF) containing a blocking solution (blocking reagent, Cisbio, 64KB1AAC) was added to each well, and the well plate was lysed on a shaker for 40 min at room temperature with shaking. After lysis, the lysate was pipetted and mixed well, 16 μL of lysate was transferred to two HTRF 96-well assay plates (Cisbio, 66PL96100) per well, and then 4 μL of premixed phosphorylated ERK1/2 antibody solution (Cisbio, 64AERPEG) or 4 μL of premixed total ERK1/2 antibody solution (Cisbio, 64NRKPEG) was added to these two plates. The microplate was sealed with a sealing membrane, centrifuged for 1 min in a microplate centrifuge, and incubated overnight at room temperature in the dark. On the third day, the fluorescence values at an excitation wavelength of 337 nm and at emission wavelengths of 665 nm and 620 nm were read using an ENVISION multifunctional microplate reader (PerkinElmer, ENVISION).

AGS cells = assay: Inhibition of 3D proliferation of AGS cells (CellTiter-Glo 3D); format: cell-based; conditions: Homo sapiens, 120 h incubation, read-out: AGS/ IC50 (nM), inhibitory activity for 3D proliferation
Description: (§2) The inhibition effect of the compounds disclosed herein on the KRAS target was evaluated by testing the 3D proliferation inhibition effect of the compounds disclosed herein on GP2d and AGS cells.
AGS cells (Nanjing Cobioer, CBP60476) were cultured in a complete medium, namely RPMI1640 medium (Hyclone, SH30809.01) containing 10% fetal bovine serum (Corning, 35-076-CV). On the first day of the experiment, the AGS cells were seeded into a 96-well low adsorption plate (Corning, CLS7007-24EA) at a density of 1,000 cells/well using complete medium to form 90 μL of cell suspension per well. The plate was centrifuged at 2,000 rpm for 5 min at room temperature and then incubated overnight in a cell incubator at 37° C. with 5% CO2.
The next day, 10 μL of serially-diluted test compound prepared from the complete medium was added to each well. […] On the seventh day, the 96-well cell culture plate was taken out, 50 μL CellTiter-Glo® 3D reagent (Promega, G9682) was added into each well, the plate was shaken at room temperature for 25 min, pipetted and mixed well, 50 μL of the solution was transferred into a white impermeable 96-well plate (PE, 6005290), and the luminescence signal values were read using a multifunctional microplate reader (PerkinElmer, ENVISION).

GP2d cells = assay: Inhibition of 3D proliferation of GP2d cells (CellTiter-Glo 3D); format: cell-based; conditions: 120 h incubation, read-out: GP2d/ IC50 (nM), inhibitory activity for 3D proliferation
Description: as §2
GP2d cells (Nanjing Cobioer, CBP60010) were cultured in a complete medium, namely DMEM/high glucose medium (Hyclone, SH30243.01) containing 10% fetal bovine serum (Corning, 35-076-CV). On the first day of the experiment, GP2d cells were seeded into a 96-well low adsorption plate (Corning, CLS7007-24EA) with complete medium at a density of 1,000 cells/well to form 90 μL of cell suspension per well. The plate was centrifuged at 2,000 rpm for 5 min at room temperature and then incubated overnight in a cell incubator at 37° C. with 5% CO2.
The next day, 10 μL of serially-diluted test compound prepared from the complete medium was added to each well. […] A blank control containing 0.5% DMSO was set. The well plate was incubated in a cell incubator at 37° C. with 5% CO2 for 120 h.

Sequence of KRAS protein subtype WT (Avi-KRAS-WT) (P01116 whole entry): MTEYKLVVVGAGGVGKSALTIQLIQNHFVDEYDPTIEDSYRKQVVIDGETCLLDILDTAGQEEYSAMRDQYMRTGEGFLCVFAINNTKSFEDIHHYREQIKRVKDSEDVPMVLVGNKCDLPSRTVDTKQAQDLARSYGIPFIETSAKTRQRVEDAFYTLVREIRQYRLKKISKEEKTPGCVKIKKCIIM
Sequence of KRAS protein subtype G12D (Avi-KRAS-G12D) (P01116 whole entry G12D): as the sequence (P01116 whole entry) above, with G12D counted along it

SMILES	Kd [1] [nM]	Kd [2] [nM]	IC50 [3] [nM]	IC50 (AGS cells) [nM]	IC50 (GP2d cells) [nM]
Oc1cc(-c2nc3c4c(nc(OC[C@@]56CCCN5C[C@H](F)C6)nc4c2F)N2C[C@H]4CC[C@H](N4)[C@H]2CO3)c2c(F)c(F)ccc2c1 [Example 8-p1, 5,6-Difluoro-4-((5aS,6S,9R)-1-fluoro-12-(((2R,7aS)-2-fluorotetrahydro-1H-pyrrolizin-7 a(5H)-yl)methoxy)-5a,6,7,8,9,10-hexahydro-5H-4-oxa-3,10a,11,13,14-pentaaza-6,9-methanonaphtho[1,8-ab]heptalen-2-yl)naphthalen-2-ol]	0.1	3.8			
CCc1cccc2cc(O)cc(-c3nc4c5c(nc(OC[C@@]67CCCN6C[C@H](F)C7)nc5c3F)N3C[C@H]5CC[C@H](N5)[C@H]3CO4)c12 [Example 4-p1, 5-Ethyl-4-((5aS,6S,9R)-1-fluoro-12-(((2R,7aS)-2-fluorotetrahydro-1H-pyrrolizin-7a(5H)-yl)methoxy)-5a,6,7,8,9,10-hexahydro-5H-4-oxa-3,10a, 11,13,14-pentaaza-6,9-methanonaphtho[1,8-ab]heptalen-2-yl)naphthalen-2-ol]	0.14	3.4			
Oc1cc(-c2cc3nc(OC[C@@]45CCCN4C[C@H](F)C5)nc4c3c(n2)OCC2C3CCC(CN42)N3)c2c(F)cccc2c1 (mixture of isomers) [Diastereomeric (1:1) mixture of 1-p1 and 1-p2, 5-Fluoro-4-(12-(((2R,7aS)-2-fluorotetrahydro-1 H-pyrrolizin-7a(5H)-yl)methoxy)-5a,6,7,8,9,10-hexahydro-5H-4-oxa-3,10a,11,13,14-pentaaza-6,9-methanonaphtho[1,8-ab]heptalen-2-yl) naphthalen-2-ol]			94.1		
CCc1c(F)ccc2cc(O)cc(-c3nc4c5c(nc(OCC6(CN7CC8CC8(CO)C7)CC6)nc5c3F)N3C[C@H]5CC[C@H](N5)[C@H]3CO4)c12 (stereo partly drawn) [Example 23, 5-Ethyl-6-fluoro-4-((5aS,6S,9R)-1-fluoro-12-((1-((1-(hydroxymethyl)-3-azabicyclo[3.1.0]hex-3-yl)methyl)cyclopropyl)methoxy)-5a,6,7,8,9,10-hexahydro-5H-4-oxa-3,10a, 11,13,14-pentaaza-6,9-methanonaphtho[1,8-ab]heptalen-2-yl)naphthalen-2-ol]			4	108	8.8
Oc1cc(Cl)c(C2CC2)c(-c2nc3c4c(nc(OC[C@@]56CCCN5C[C@H](F)C6)nc4c2F)N2C[C@H]4CC[C@H](N4)[C@H]2CO3)c1 [Example 6-p1, 3-Chloro-4-cyclopropyl-5-((5aS,6S,9R)-1-fluoro-12-(((2R,7aS)-2-fluorotetrahydro-1H-pyrrolizin-7a(5H)-yl)methoxy)-5a,6,7,8,9,10-hexahydro-5H-4-oxa-3,10a,11,13,14-pentaaza-6,9-methanonaphtho[1,8-ab]heptalen-2-yl)phenol]	0.1	7			
CCc1c(F)ccc2cc(O)cc(-c3nc4c5c(nc(OCC6(CN7C[C@H]8C[C@H]8[C@H]7CO)CC6)nc5c3F)N3C[C@H]5CC[C@H](N5)[C@H]3CO4)c12 [Example 22, 5-Ethyl-6-fluoro-4-((5aS,6S,9R)-1-fluoro-12-((1-(((1R,2S,5S)-2-(hydroxymethyl)-3-azabicyclo[3.1.0]hex-3-yl)methyl)cyclopropyl)methoxy)-5a,6,7,8,9,10-hexahydro-5H-4-oxa-3,10a, 11,13,14-pentaaza-6,9-methanonaphtho[1,8-ab]heptalen-2-yl)naphthalen-2-ol]			10.2		9.6
CCc1c(F)ccc2cc(O)cc(-c3nc4c5c(nc(OC[C@@]67CCCN6C[C@H](F)C7)nc5c3F)N3C[C@H]5CC[C@H](N5)[C@H]3CO4)c12 [Example 9-p1, 5-Ethyl-6-fluoro-4-((5aS,6S,9R)-1-fluoro-12-(((2R,7aS)-2-fluorotetrahydro-1H-pyrrolizin-7a(5H)-yl)methoxy)-5a,6,7,8,9,10-hexahydro-5H-4-oxa-3,10a, 11,13,14-pentaaza-6,9-methanonaphtho[1,8-ab]heptalen-2-yl)naphthalen-2-ol]	0.03	1.54			
CCc1cccc2cc(O)cc(-c3cc4nc(OC[C@@]56CCCN5C[C@H](F)C6)nc5c4c(n3)OCC3C4CCC(CN53)N4)c12 (mixture of isomers) [Diastereomeric (1:1) mixture of 2-p1 and 2-p2, 5-Ethyl-4-(12-(((2R,7aS)-2-fluorotetrahydro-1H-pyrrolizin-7a(5H)-yl)methoxy)-5a,6,7,8,9,10-hexahydro-5H-4-oxa-3,10a,11,13,14-pentaaza-6,9-methanonaphtho[1,8-ab]heptalen-2-yl) naphthalen-2-ol]	0.4	32.4			
CCc1cccc2cc(O)cc(-c3nc4c5c(nc(OC[C@@]67CCCN6C[C@H](F)C7)nc5c3F)N3CC5CCC(N5)C3CO4)c12 (mixture of isomers) [Diastereomeric (1:1) mixture of 4-p1 and 4-p2, 5-Ethyl-4-(1-fluoro-12-(((2R,7aS)-2-fluorotetrahydro-1H-pyrrolizin-7a(5H)-yl)methoxy)-5a,6,7,8,9,10-hexahydro-5H-4-oxa-3,10a,11,13,14-pentaaza-6,9-methanonaphtho[1,8-ab]heptalen-2-yl)naphthalen-2-ol]			1.35		
CCc1cccc2cc(O)cc(-c3cc4c5c(nc(OC[C@@]67CCCN6C[C@H](F)C7)nc5c3F)N3CC5CCC(N5)C3CO4)c12 (mixture of isomers) [Diastereomeric (1:1) mixture of 11-p1 and 11-p2, 5-Ethyl-4-(1-fluoro-13-(((2R,7aS)-2-fluorotetrahydro-1H-pyrrolizin-7a(5H)-yl)methoxy)-5a,6,7,8,9,10-hexahydro-5H-6,9-epiminoazepino[2′,1′: 3,4][1,4]oxazepino[5,6,7-de]quinazolin-2-yl) naphthalen-2-ol]			15.6		62.5
